Broadly, the Km is the substrate concentration at which the rate is half of its maximum.

Data set [1] relates to quorum sensing signaling (Las system), QSC102 lacZ. In words: Two-strain (PAO1 / QSC102) screening assay for quorum sensing inhibiting compounds. In kind it is cell-based, Pseudomonas aeruginosa. Conditions: PAO1 + QSC102 on LB agar with X-gal, visual. Here is the method:
In this example, the screening assay used two strains of P. aeruginosa: a wild type P. aeruginosa (PAO1) and QSC102, from Example 1 (see FIG. 8). This assay will detect inhibition of all aspects of quorum sensing signaling, e.g., signal generation and signal reception.
(§1) Microtiter plates are prepared by adding 200 μL Luria Broth (“LB”) agar, containing 0.008% 5-bromo-4-chloro-3-indolyl-β-D-galactose (X-gal) to each well. Overnight cultures of PAO1 and QSC102 are subcultured in LB to a starting absorbance at 600 nm (“A600”) of 0.05 and grown at 37° C to an A600 of 1.0. PAO1 is diluted 2.5×10^5-fold in LB and 5 μL of this is applied to the surface of the LB agar in each well. Plates are then dried in a laminar flow hood for 60 minutes. A tenfold dilution of QSC102 in LB is used to inoculate each well using a replicator. Plates are then sealed and incubated at 37° C for 40 hours. Growth and color development are evaluated visually and the data is recorded with a camera.
(§2) The test compound was present in a microtiter well and overlaid with LB agar and 5-bromo-4-chloro-3-indolyl-β-D-galactose (X-gal). Both strains were spotted on the agar in each well. […] Inhibition of signaling was evaluated qualitatively by the absence or weakening of the blue color development.

In data set [2] the test system is P. aeruginosa PAO1 and QSC102. In words: Bacterial growth in the PAO1 / QSC102 screening assay. Format: cell-based, Pseudomonas aeruginosa. As to conditions: in the presence of test compound. As for the experimental part:
as §1, §2

For data set [3], the target named is T1, RhlI (Pseudomonas aeruginosa, UniProt P54291).
T1 construct: host or cells: LasI minus strain of P. aeruginosa (as described for the cited study, Parsek et al. 1999)
T1 sequence (P54291 whole entry): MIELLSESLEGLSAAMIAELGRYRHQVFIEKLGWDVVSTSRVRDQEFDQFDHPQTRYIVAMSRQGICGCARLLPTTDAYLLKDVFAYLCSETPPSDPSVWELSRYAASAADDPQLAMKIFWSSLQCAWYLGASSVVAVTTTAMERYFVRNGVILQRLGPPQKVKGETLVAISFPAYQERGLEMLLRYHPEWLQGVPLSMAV
As to conditions: substrate of RhlI; cited from earlier work.

As for `CC(=O)C1CCOC1=O` (stereo not drawn) [acetyl-butyrolactone], in data set [1], the “Concentration required to suppress color development completely” value is reported as roughly 20 mM and the “Inhibition of signaling (blue color development)” value is listed as “showed an inhibitory effect”. For the same molecule, the Bacterial growth result in data set [2] is listed as “not inhibited”.
With butanoyl-acyl carrier protein [C4-ACP], the Km in data set [3] is 6 µM.
As to `O=C1CCCO1` [butyrolactone], in data set [1], the “Concentration required to suppress color development completely” value was roughly 20 mM and the “Inhibition of signaling (blue color development)” value is on record as “showed an inhibitory effect”. For the same molecule, in data set [2], the Bacterial growth result is on record as “not inhibited”.
In the case of `CCCC(=O)SCCNC(=O)CCNC(=O)[C@H](O)C(C)(C)COP(=O)(O)OP(=O)(O)OC[C@H]1O[C@@H](n2cnc3c(N)ncnc32)[C@H](O)[C@@H]1OP(=O)(O)O` [butanoyl-CoA], in data set [3], the Km is 230 µM and the “vmax compared to C4-ACP” value is on record as “one order of magnitude slower”.

The values are drawn from US6855513B1 (priority 1999, dated 2005).
